Results published in patent US7834024B2, “Compositions and methods for inhibition of the JAK pathway” (Rigel Pharmaceuticals, Inc., priority 2007, dated 2010).

These compounds were tested on Ramos B-Cell Line Stimulated with IL-4 (JAK-1 and JAK-3 / Stat-6, CD23) (assay: Assay for Ramos B-Cell Line Stimulated with IL-4 (CD23 upregulation, FACS)). Details: Homo sapiens, Ramos, human Ramos B cells, compound 1 hour, IL-4 50 units/mL for 20-24 hours, anti-CD23-PE FACS; read-out: Example 2 (IC50).
Format: cell-based
From the text: One means of assaying for such inhibition is detection of the effect of the 2,4-pyrimidinediamine compounds on the upregulation of downstream gene products. In the Ramos/IL4 assay, B-cells are stimulated with the cytokine Interleukin-4 (IL-4) leading to the activation of the JAK/Stat pathway through phosphorylation of the JAK family kinases, JAK1 and JAK3, which in turn phosphorylate and activate the transcription factor Stat-6. […] To study the effect of inhibitors (e.g., the 2,4-substituted pyrimindinediamine compounds described herein) on the JAK1 and JAK3 kinases, human Ramos B cells are stimulated with human IL-4. 20 to 24 hours post stimulation, cells are stained for upregulation of CD23 and analyzed using flow cytometry (FACS).
B-cells stimulated with cytokine Interleukin-4 (IL-4) activate the JAK/Stat pathway through phosphorylation of the JAK family kinases, JAK-1 and JAK-3, which in turn phosphorylate and activate the transcription factor Stat-6. […] To study the effect of inhibitors on the JAK family kinases, human Ramos B cells were stimulated with human IL-4.
Cells were maintained at a density of 3.5×10^5. The day before the experiment, Ramos B-cells were diluted to 3.5×10^5 cells/mL to ensure that they were in a logarithmic growth phase.
Cells were spun down and suspended in RPMI with 5% serum. 5×10^4 cells were used per point in a 96-well tissue culture plate. Cells were pre-incubated with compound or DMSO (Sigma-Aldrich, St. Louis, Mo., Cat No. D2650) vehicle control for 1 hour in a 37° C. incubator. Cells were then stimulated with IL-4 (Peprotech Inc., Rocky Hill, N.J., Cat No. 200-04) for a final concentration of 50 units/mL for 20-24 hours. […] Detection was performed using a BD LSR I System Flow Cytometer, purchased from Becton Dickinson Biosciences of San Jose, Calif.

| IC50 [µM] | Compound |
| --- | --- |
| 0.0805 | Cc1nc(COc2ccc(Nc3nc(Nc4ccc(N5CCN(C)CC5)c(C(N)=O)c4)ncc3F)cc2)no1 [Compound I-62, N2-[3-Aminocarbonyl-4-(4-methylpiperazin-1-yl)phenyl]-5-fluoro-N4-[4-((5-methyl-1,2,4-oxadiazol-3-yl)methoxy)phenyl]-2,4-pyrimidinediamine] |
| 0.291 | Cc1nc(COc2ccc(Nc3nc(Nc4cccc(C(N)=O)c4)ncc3F)cc2)no1 [Compound I-57, N2-(3-Aminocarbonylphenyl)-5-fluoro-N4-[4-((5-methyl-1,2,4-oxadiazol-3-yl)methoxy)phenyl]-2,4-pyrimidinediamine] |
| 0.317 | COc1ccc(Nc2nc(Nc3ccc(C(=O)Nc4ccn(C)n4)cc3)ncc2F)cc1Cl [Compound I-2, N4-(3-Chloro-4-methoxyphenyl)-5-fluoro-N2-[4-((1-methyl-1H-pyrazol-3-yl)aminocarbonyl)phenyl]-2,4-pyrimidinediamine] |
| 0.886 | N#Cc1cccc(Nc2ncc(F)c(Nc3ccc(OCC(N)=O)cc3)n2)c1 [Compound I-22, N4-(4-Aminocarbonylmethoxyphenyl)-N2-(3-cyanophenyl)-5-fluoro-2,4-pyrimidinediamine] |
| 0.357 | CNC(=O)c1cc(Nc2ncc(F)c(Nc3cccc(OCC(N)=O)c3)n2)ccc1N1CCN(C)CC1 [Compound I-51, N4-(3-Aminocarbonylmethoxyphenyl)-5-fluoro-N2-[3-methylaminocarbonyl-4-(4-methylpiperazin-1-yl)phenyl]-2,4-pyrimidinediamine] |
| 0.103 | Cc1cc(Nc2nc(Nc3ccc(C(N)=O)cc3)ncc2F)cc(C)c1OC(C)C#N (stereo not shown) [Compound I-95, N2-(4-Aminocarbonylphenyl)-N4-[4-(1-cyanoethoxy)-3,5-dimethylphenyl]-5-fluoro-2,4-pyrimidinediamine] |
| 3.02 | CN1CCN(C(=O)c2ccc(Nc3ncc(F)c(Nc4ccc(OCC(N)=O)cc4)n3)cc2)CC1 [Compound I-36, N4-(4-Aminocarbonylmethoxyphenyl)-5-fluoro-N2-[4-((4-methylpiperazin-1-yl)carbonyl)phenyl]-2,4-pyrimidinediamine] |
| 0.00543 | CN1C(=O)CSc2ccc(Nc3nc(Nc4ccc(C(N)=O)cc4)ncc3F)cc21 [II-4, N2-(4-Aminocarbonylphenyl)-5-fluoro-N4-(4-methyl-3-oxo-2H-benzo[1,4]thiazin-6-yl)-2,4-pyrimidinediamine] |
| 0.0563 | Cc1cc(Nc2nc(Nc3ccc(C(N)=O)c(Cl)c3)ncc2F)ccc1N1CCN(C)CC1 [Compound I-11, N2-(4-Aminocarbonyl-3-chlorophenyl)-5-fluoro-N4-[3-methyl-4-(4-methylpiperazin-1-yl)phenyl]-2,4-pyrimidinediamine] |
| 0.0384 | CNC(=O)c1cc(Nc2ncc(F)c(Nc3cccc(OCC#N)c3)n2)ccc1N1CCN(C)CC1 [Compound I-55, N4-(3-Cyanomethoxyphenyl)-5-fluoro-N2-[3-methylaminocarbonyl-4-(4-methylpiperazin-1-yl)phenyl]-2,4-pyrimidinediamine] |
| 3.07 | NC(=O)COc1ccc(Nc2nc(Nc3cccc(C(N)=O)c3)ncc2F)cc1 [Compound I-23, N4-(4-Aminocarbonylmethoxyphenyl)-N2-(3-aminocarbonylphenyl)-5-fluoro-2,4-pyrimidinediamine] |
| 0.0746 | N#CCOc1ccc(Nc2nc(Nc3ccc(C#N)cc3)ncc2F)cc1 [Compound I-29, N2-(4-Cyanophenyl)-N4-(4-cyanomethoxyphenyl)-5-fluoro-2,4-pyrimidinediamine] |
| 0.00356 | CNC(=O)c1cc(Nc2ncc(F)c(Nc3ccc(OCC#N)cc3)n2)ccc1N1CCN(C)CC1 [Compound I-43, N4-(4-Cyanomethoxyphenyl)-5-fluoro-N2-[3-methylaminocarbonyl-4-(4-methylpiperazin-1-yl)phenyl]-2,4-pyrimidinediamine] |
| 0.391 | CNC(=O)COc1cc(Nc2ncc(F)c(Nc3ccc4c(c3)NC(=O)C(F)(F)O4)n2)ccc1OC [II-34, N4-(2,2-Difluoro-3-oxo-4H-benzo[1,4]oxazin-6-yl)-5-fluoro-N2-[4-methoxy-3-(N-methylaminocarbonylmethoxy)phenyl]-2,4-pyrimidinediamine] |
| 103 | N#CCc1ccc(Nc2ncc(F)c(Nc3ccc(F)c(C#N)c3)n2)cc1 [Compound I-118, N4-(3-Cyano-4-fluorophenyl)-N2-(4-cyanomethylphenyl)-5-fluoro-2,4-pyrimidinediamine] |
| 0.266 | COc1ccc(Nc2nc(Nc3cccc(C#N)c3)ncc2F)cc1Cl [Compound I-18, N4-(3-Chloro-4-methoxyphenyl)-N2-(3-cyanophenyl)-5-fluoro-2,4-pyrimidinediamine] |
| 0.083 | N#CCOc1ccc(Nc2nc(Nc3ccc(CC#N)cc3)ncc2F)cc1Cl [Compound I-100, N4-(3-Chloro-4-cyanomethoxyphenyl)-N2-(4-cyanomethylphenyl)-5-fluoro-2,4-pyrimidinediamine] |
| 0.245 | N#Cc1ccc(Nc2ncc(F)c(Nc3ccc(OCC(N)=O)cc3)n2)cc1 [Compound I-24, N4-(4-Aminocarbonylmethoxyphenyl)-N2-(4-cyanophenyl)-5-fluoro-2,4-pyrimidinediamine] |
| 0.144 | CC1(C)Oc2ccc(Nc3nc(Nc4ccc5oc(C(=O)NCCN6CCOCC6)cc5c4)ncc3F)nc2NC1=O [Compound V-1, N4-[2,2-Dimethyl-3-oxo-4H-5-pyrido[1,4]oxazin-6-yl]-5-fluoro-N2-[2-(2-(N-morpholinyl)ethylaminocarbonyl)benzofuran-5-yl]-2,4-pyrimidinediamine] |
| 0.0651 | N#CCOc1ccc(Nc2nc(Nc3cccc(C(N)=O)c3)ncc2F)cc1 [Compound I-28, N2-(3-Aminocarbonylphenyl)-N4-(4-cyanomethoxyphenyl)-5-fluoro-2,4-pyrimidinediamine] |
| 0.148 | CC(C)(C#N)Oc1ccc(Nc2nc(Nc3ccc(C(N)=O)cc3)ncc2F)cc1 [Compound I-84, N2-(4-Aminocarbonylphenyl)-N4-[4-(1-cyano-1-methylethoxy)phenyl]-5-fluoro-2,4-pyrimidinediamine] |
| 0.195 | Cc1cnc(Nc2cnc3c(c2)OCC(=O)N3)nc1Nc1cnc2c(c1)OCC(=O)N2 [VII-3, N4,N2-Bis(3-oxo[4H]-5-pyrido[1,4]oxazin-7-yl)-5-methyl-2,4-pyrimidinediamine] |
| 0.381 | Cc1cc(Nc2nc(Nc3ccc(CC#N)cc3)ncc2F)ccc1OC(C)C#N (stereo not shown) [Compound I-94, N4-[4-(1-Cyanoethoxy)-3-methylphenyl]-N2-(4-cyanomethylphenyl)-5-fluoro-2,4-pyrimidinediamine] |

Same assay, conditions: human Ramos B cells, compound 1 hour, IL-4 50 units/mL for 20-24 hours, anti-CD23-PE FACS; read-out: Example 2 (IC50)

| IC50 [µM] | Compound |
| --- | --- |
| 0.213 | N2-(3-Cyanomethoxy-4,5-dimethoxyphenyl)-N4-(2,2-dimethyl-3-oxo-4H-5-pyrido[1,4]oxazin-6-yl)-5-fluoro-2,4-pyrimidinediamine [II-16] |
| 0.599 | CN1CCN(C(=O)c2ccc(Nc3ncc(F)c(Nc4ccc(CC#N)cc4)n3)cc2)CC1 [Compound I-72, N4-(4-Cyanomethylphenyl)-5-fluoro-N2-[4-((4-methylpiperazin-1-yl)carbonyl)phenyl]-2,4-pyrimidinediamine] |
| 0.898 | Cc1nc(COc2ccc(Nc3nc(Nc4ccc(C(=O)N5CCN(C)CC5)cc4)ncc3F)cc2)no1 [Compound I-61, 5-Fluoro-N4-[4-((5-methyl-1,2,4-oxadiazol-3-yl)methoxy)phenyl]-N2-[4-((4-methylpiperazin-1-yl)carbonyl)phenyl]-2,4-pyrimidinediamine] |
| 0.028 | CNC(=O)COc1cccc(Nc2ncc(F)c(Nc3ccc4c(c3)N(CC#N)C(=O)CO4)n2)c1 [II-11, N4-(4-Cyanomethyl-3-oxo-2H-benzo[1,4]oxazin-6-yl)-5-fluoro-N2-[3-(N-methylaminocarbonylmethyleneoxy)phenyl]-2,4-pyrimidinediamine] |
| 3.78 | CNC(=O)COc1cccc(Nc2ncc(C)c(Nc3cnc4c(c3)OC(F)(F)C(=O)N4)n2)c1 [II-36, N4-(2,2-Difluoro-3-oxo-4H-5-pyrido[1,4]oxazin-7-yl)-5-methyl-N2-[3-(N-methylaminocarbonylmethyleneoxy)phenyl]-2,4-pyrimidinediamine] |
| 0.095 | CNC(=O)COc1cc(Nc2ncc(F)c(Nc3ccc4c(c3)NC(=O)CS4)n2)cc(OC)c1OC [II-19, N2-[4,5-Dimethoxy-3-(N-methylaminocarbonylmethyleneoxy)phenyl]-5-Fluoro-N4-(3-oxo-2H,4H-benzo[1,4]thiazin-6-yl)-2,4-pyrimidinediamine] |
| 0.889 | N4-(4-Chloro-3-methoxyphenyl)-N2-[1-(2-(N-morpholinyl)ethylaminocarbonyl)-1H-indol-6-yl]-2,4-pyrimidinediamine [VI-4] |

| Compound | IC50 [µM] |
| --- | --- |
| Cc1noc(COc2ccc(N(C)c3nc(Nc4ccc(C(N)=O)c(Cl)c4)ncc3F)cc2)n1 [Compound I-16, N2-(4-Aminocarbonyl-3-chlorophenyl)-5-fluoro-N4-methyl-N4-[4-((3-methyl-1,2,4-oxadiazol-5-yl)methyleneoxy)phenyl]-2,4-pyrimidinediamine] | 0.909 |
